{"source": "paper PMC9785231", "about": "“Synthesis and Pharmacological Evaluation of Enantiopure N-Substituted Ortho-c Oxide-Bridged 5-Phenylmorphans” (Molecules, 2022)", "key": {"δ-opioid receptor (DOR)": {"biological_target": "T1, δ-opioid receptor (DOR) (Rattus norvegicus, UniProt P33533)", "T1 construct": "All assay tubes contained 100 μL homogenate suspension; from tissue; host or cells: whole rat brain excluding cerebellum, membrane homogenate", "T1 sequence (P33533 whole entry)": "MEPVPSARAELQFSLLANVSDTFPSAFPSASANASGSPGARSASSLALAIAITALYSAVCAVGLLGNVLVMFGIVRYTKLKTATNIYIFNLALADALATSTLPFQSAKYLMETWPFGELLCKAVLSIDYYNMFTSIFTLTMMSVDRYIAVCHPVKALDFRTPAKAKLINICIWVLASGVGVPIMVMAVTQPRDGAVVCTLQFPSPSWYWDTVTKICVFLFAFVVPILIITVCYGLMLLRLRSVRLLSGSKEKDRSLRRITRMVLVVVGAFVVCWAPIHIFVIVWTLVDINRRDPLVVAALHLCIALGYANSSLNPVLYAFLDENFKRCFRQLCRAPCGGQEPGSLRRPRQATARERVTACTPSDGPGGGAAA", "experiment": "Opioid receptor binding, DOR ([3H]DADLE), rat brain homogenate", "conditions": "for DOR Binding, activity in exploratory binding assays: 100 nM concentration, displacement of radioligand"}, "μ-opioid receptor (MOR)": {"biological_target": "T2, μ-opioid receptor (MOR) (Rattus norvegicus, UniProt P33535)", "T2 construct": "All assay tubes contained 100 μL homogenate suspension; from tissue; host or cells: whole rat brain excluding cerebellum, membrane homogenate", "T2 sequence (P33535 whole entry)": "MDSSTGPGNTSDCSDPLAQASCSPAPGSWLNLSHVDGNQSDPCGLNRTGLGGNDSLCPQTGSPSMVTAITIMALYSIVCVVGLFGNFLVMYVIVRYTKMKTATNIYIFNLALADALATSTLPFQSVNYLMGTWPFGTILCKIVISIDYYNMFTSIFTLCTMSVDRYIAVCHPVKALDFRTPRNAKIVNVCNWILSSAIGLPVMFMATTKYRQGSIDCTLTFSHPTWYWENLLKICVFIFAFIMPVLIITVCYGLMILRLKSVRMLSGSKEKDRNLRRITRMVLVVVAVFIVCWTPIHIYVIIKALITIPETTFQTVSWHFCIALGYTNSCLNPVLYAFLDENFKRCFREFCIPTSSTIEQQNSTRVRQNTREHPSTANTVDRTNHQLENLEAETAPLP", "experiment": "Opioid receptor binding, MOR ([3H]DAMGO), rat brain homogenate", "conditions": "for MOR Binding, activity in exploratory binding assays: 100 nM concentration, displacement of radioligand; for Ki: [3H]DAMGO, whole rat brains excluding cerebellum, read-out: MOR Binding (Ki ± SEM)"}, "κ-opioid receptor (KOR)": {"biological_target": "T3, κ-opioid receptor (KOR) (Rattus norvegicus, UniProt P34975)", "T3 construct": "All assay tubes contained 100 μL homogenate suspension; from tissue; host or cells: whole rat brain excluding cerebellum, membrane homogenate", "T3 sequence (P34975 whole entry)": "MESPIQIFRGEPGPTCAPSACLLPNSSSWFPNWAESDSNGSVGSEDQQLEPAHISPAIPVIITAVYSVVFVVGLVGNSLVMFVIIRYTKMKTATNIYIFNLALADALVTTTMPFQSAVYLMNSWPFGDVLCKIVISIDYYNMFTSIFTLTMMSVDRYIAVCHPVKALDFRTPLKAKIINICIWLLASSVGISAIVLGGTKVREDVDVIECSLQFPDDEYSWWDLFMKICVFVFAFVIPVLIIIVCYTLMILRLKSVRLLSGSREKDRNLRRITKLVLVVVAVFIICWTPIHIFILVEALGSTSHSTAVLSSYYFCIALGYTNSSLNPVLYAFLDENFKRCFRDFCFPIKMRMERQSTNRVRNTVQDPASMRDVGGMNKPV", "experiment": "Opioid receptor binding, KOR ([3H]U69,593), rat brain homogenate", "conditions": "for KOR Binding, activity in exploratory binding assays: 100 nM concentration, displacement of radioligand; for Ki: [3H]U69,593, whole rat brains excluding cerebellum, read-out: KOR Binding (Ki ± SEM)"}}, "note": "Counter-ions that a name gives are not always drawn."}
{"compound": "Oc1cccc2c1O[C@@H]1CN(C[C@@H]3C[C@@H]3c3ccccc3)[C@@H]3CCC[C@]21C3", "note": "[(-)-19, (3R,6aS,11aS)-2-(((1R,2S)-2-phenylcyclopropyl)methyl)-1,3,4,5,6,11a-hexahydro-2H-3,6a-methanobenzofuro[2,3-c]azocin-10-ol]", "values": [{"measurement": "DOR Binding, activity in exploratory binding assays", "setting": "δ-opioid receptor (DOR)", "result": "NT (NT = not tested—inactive (<50% activity at 100 nM concentration in exploratory binding assays (displaced less than half of radioligand))"}, {"measurement": "MOR Binding, activity in exploratory binding assays", "setting": "μ-opioid receptor (MOR)", "result": "NT (NT = not tested—inactive (<50% activity at 100 nM concentration in exploratory binding assays (displaced less than half of radioligand))"}, {"measurement": "KOR Binding, activity in exploratory binding assays", "setting": "κ-opioid receptor (KOR)", "result": "NT (NT = not tested—inactive (<50% activity at 100 nM concentration in exploratory binding assays (displaced less than half of radioligand))"}]}
{"compound": "Oc1cccc2c1O[C@@H]1CN(C[C@H]3C[C@@H]3c3ccccc3)[C@@H]3CCC[C@]21C3", "note": "(as salt: HCl) [(+)-16, (3R,6aS,11aS)-2-(((1S,2S)-2-Phenylcyclopropyl)methyl)-1,3,4,5,6,11a-hexahydro-2H-3,6a-methanobenzofuro[2,3-c]azocin-10-ol]", "values": [{"measurement": "melting point", "result": "246.6 to 251.6", "unit": "°C"}]}
{"compound": "Oc1cccc2c1O[C@@H]1CN(C[C@H]3C[C@H]3c3ccccc3)[C@@H]3CCC[C@]21C3", "note": "[(+)-18, (3R,6aS,11aS)-2-(((1S,2R)-2-Phenylcyclopropyl)methyl)-1,3,4,5,6,11a-hexahydro-2H-3,6a-methanobenzofuro[2,3-c]azocin-10-ol]", "values": [{"measurement": "DOR Binding, activity in exploratory binding assays", "setting": "δ-opioid receptor (DOR)", "result": "NT (NT = not tested—inactive (<50% activity at 100 nM concentration in exploratory binding assays (displaced less than half of radioligand))"}, {"measurement": "MOR Binding, activity in exploratory binding assays", "setting": "μ-opioid receptor (MOR)", "result": "NT (NT = not tested—inactive (<50% activity at 100 nM concentration in exploratory binding assays (displaced less than half of radioligand))"}, {"measurement": "KOR Binding, activity in exploratory binding assays", "setting": "κ-opioid receptor (KOR)", "result": "NT (NT = not tested—inactive (<50% activity at 100 nM concentration in exploratory binding assays (displaced less than half of radioligand))"}]}
{"compound": "Oc1cccc2c1O[C@@H]1CN(C[C@H]3C[C@H]3c3ccccc3)[C@@H]3CCC[C@]21C3", "note": "(as salt: HCl) [(+)-18, (3R,6aS,11aS)-2-(((1S,2R)-2-Phenylcyclopropyl)methyl)-1,3,4,5,6,11a-hexahydro-2H-3,6a-methanobenzofuro[2,3-c]azocin-10-ol]", "values": [{"measurement": "melting point", "result": "204.4 to 208.5", "unit": "°C"}]}
{"compound": "Oc1cccc2c1O[C@H]1CN(C[C@H]3C[C@H]3c3ccccc3)[C@H]3CCC[C@@]21C3", "note": "(as salt: HCl) [(+)-19, (3S,6aR,11aR)-2-(((1S,2R)-2-Phenylcyclopropyl)methyl)-1,3,4,5,6,11a-hexahydro-2H-3,6a-methanobenzofuro[2,3-c]azocin-10-ol]", "values": [{"measurement": "melting point", "result": "183.1 to 187.7", "unit": "°C"}]}
{"compound": "Oc1cccc2c1O[C@@H]1CN(C[C@@H]3C[C@H]3c3ccccc3)[C@@H]3CCC[C@]21C3", "note": "(as salt: HCl) [(-)-17, (3R,6aS,11aS)-2-(((1R,2R)-2-Phenylcyclopropyl)methyl)-1,3,4,5,6,11a-hexahydro-2H-3,6a-methanobenzofuro[2,3-c]azocin-10-ol]", "values": [{"measurement": "melting point", "result": "208.2 to 213.2", "unit": "°C"}]}
{"compound": "Oc1cccc2c1O[C@H]1CN(C[C@@H]3C[C@H]3c3ccccc3)[C@H]3CCC[C@@]21C3", "note": "[(-)-16, (3S,6aR,11aR)-2-(((1R,2R)-2-Phenylcyclopropyl)methyl)-1,3,4,5,6,11a-hexahydro-2H-3,6a-methanobenzofuro[2,3-c]azocin-10-ol]", "values": [{"measurement": "DOR Binding, activity in exploratory binding assays", "setting": "δ-opioid receptor (DOR)", "result": "NT (NT = not tested—inactive (<50% activity at 100 nM concentration in exploratory binding assays (displaced less than half of radioligand))"}, {"measurement": "Ki", "setting": "μ-opioid receptor (MOR)", "result": "109 ± 5.5", "unit": "nM"}, {"measurement": "KOR Binding, activity in exploratory binding assays", "setting": "κ-opioid receptor (KOR)", "result": "NT (NT = not tested—inactive (<50% activity at 100 nM concentration in exploratory binding assays (displaced less than half of radioligand))"}]}
{"compound": "Oc1cccc2c1O[C@@H]1CN(C[C@@H]3C[C@H]3c3ccccc3)[C@@H]3CCC[C@]21C3", "note": "[(-)-17, (3R,6aS,11aS)-2-(((1R,2R)-2-Phenylcyclopropyl)methyl)-1,3,4,5,6,11a-hexahydro-2H-3,6a-methanobenzofuro[2,3-c]azocin-10-ol]", "values": [{"measurement": "DOR Binding, activity in exploratory binding assays", "setting": "δ-opioid receptor (DOR)", "result": "NT (NT = not tested—inactive (<50% activity at 100 nM concentration in exploratory binding assays (displaced less than half of radioligand))"}, {"measurement": "MOR Binding, activity in exploratory binding assays", "setting": "μ-opioid receptor (MOR)", "result": "NT (NT = not tested—inactive (<50% activity at 100 nM concentration in exploratory binding assays (displaced less than half of radioligand))"}, {"measurement": "KOR Binding, activity in exploratory binding assays", "setting": "κ-opioid receptor (KOR)", "result": "NT (NT = not tested—inactive (<50% activity at 100 nM concentration in exploratory binding assays (displaced less than half of radioligand))"}]}
{"compound": "Oc1cccc2c1O[C@H]1CN(C[C@H]3C[C@@H]3c3ccccc3)[C@H]3CCC[C@@]21C3", "note": "(as salt: HCl) [(+)-17, (3S,6aR,11aR)-2-(((1S,2S)-2-Phenylcyclopropyl)methyl)-1,3,4,5,6,11a-hexahydro-2H-3,6a-methanobenzofuro[2,3-c]azocin-10-ol]", "values": [{"measurement": "melting point", "result": "187.2 to 192.2", "unit": "°C"}]}
{"compound": "Oc1cccc2c1O[C@@H]1CN(C[C@H]3C[C@@H]3c3ccccc3)[C@@H]3CCC[C@]21C3", "note": "[(+)-16, (3R,6aS,11aS)-2-(((1S,2S)-2-Phenylcyclopropyl)methyl)-1,3,4,5,6,11a-hexahydro-2H-3,6a-methanobenzofuro[2,3-c]azocin-10-ol]", "values": [{"measurement": "DOR Binding, activity in exploratory binding assays", "setting": "δ-opioid receptor (DOR)", "result": "NT (NT = not tested—inactive (<50% activity at 100 nM concentration in exploratory binding assays (displaced less than half of radioligand))"}, {"measurement": "MOR Binding, activity in exploratory binding assays", "setting": "μ-opioid receptor (MOR)", "result": "NT (NT = not tested—inactive (<50% activity at 100 nM concentration in exploratory binding assays (displaced less than half of radioligand))"}, {"measurement": "KOR Binding, activity in exploratory binding assays", "setting": "κ-opioid receptor (KOR)", "result": "NT (NT = not tested—inactive (<50% activity at 100 nM concentration in exploratory binding assays (displaced less than half of radioligand))"}]}
{"compound": "Oc1cccc2c1O[C@H]1CN(C[C@@H]3C[C@@H]3c3ccccc3)[C@H]3CCC[C@@]21C3", "note": "(as salt: HCl) [(-)-18, (3S,6aR,11aR)-2-(((1R,2S)-2-Phenylcyclopropyl)methyl)-1,3,4,5,6,11a-hexahydro-2H-3,6a-methanobenzofuro[2,3-c]azocin-10-ol]", "values": [{"measurement": "melting point", "result": "193.9 to 198.5", "unit": "°C"}]}
{"compound": "Oc1cccc2c1O[C@H]1CN(C[C@H]3C[C@H]3c3ccccc3)[C@H]3CCC[C@@]21C3", "note": "[(+)-19, (3S,6aR,11aR)-2-(((1S,2R)-2-Phenylcyclopropyl)methyl)-1,3,4,5,6,11a-hexahydro-2H-3,6a-methanobenzofuro[2,3-c]azocin-10-ol]", "values": [{"measurement": "DOR Binding, activity in exploratory binding assays", "setting": "δ-opioid receptor (DOR)", "result": "NT (NT = not tested—inactive (<50% activity at 100 nM concentration in exploratory binding assays (displaced less than half of radioligand))"}, {"measurement": "Ki", "setting": "μ-opioid receptor (MOR)", "result": "52.4 ± 5.1", "unit": "nM"}, {"measurement": "Ki", "setting": "κ-opioid receptor (KOR)", "result": "67.3 ± 7.9", "unit": "nM"}]}
{"compound": "Oc1cccc2c1O[C@H]1CN(C[C@@H]3C[C@@H]3c3ccccc3)[C@H]3CCC[C@@]21C3", "note": "[(-)-18, (3S,6aR,11aR)-2-(((1R,2S)-2-Phenylcyclopropyl)methyl)-1,3,4,5,6,11a-hexahydro-2H-3,6a-methanobenzofuro[2,3-c]azocin-10-ol]", "values": [{"measurement": "Ki", "setting": "δ-opioid receptor (DOR); [3H]DADLE, whole rat brains excluding cerebellum, read-out: DOR Binding (Ki ± SEM)", "result": "89 ± 13.4", "unit": "nM"}, {"measurement": "Ki", "setting": "κ-opioid receptor (KOR)", "result": "109 ± 16", "unit": "nM"}]}
{"compound": "Oc1cccc2c1O[C@@H]1CN(C[C@@H]3C[C@@H]3c3ccccc3)[C@@H]3CCC[C@]21C3", "note": "(as salt: HBr) [(-)-19, (3R,6aS,11aS)-2-(((1R,2S)-2-phenylcyclopropyl)methyl)-1,3,4,5,6,11a-hexahydro-2H-3,6a-methanobenzofuro[2,3-c]azocin-10-ol]", "values": [{"measurement": "melting point", "result": "193.3 to 198.3", "unit": "°C"}]}
{"compound": "Oc1cccc2c1O[C@H]1CN(C[C@@H]3C[C@H]3c3ccccc3)[C@H]3CCC[C@@]21C3", "note": "(as salt: HCl) [(-)-16, (3S,6aR,11aR)-2-(((1R,2R)-2-Phenylcyclopropyl)methyl)-1,3,4,5,6,11a-hexahydro-2H-3,6a-methanobenzofuro[2,3-c]azocin-10-ol]", "values": [{"measurement": "melting point", "result": "252.7 to 256.5", "unit": "°C"}]}
